Experimental data as given in the supplement of paper PMC11061612.

Columns and labels:
Experiment in all cases: Bliss excess, mean over the matrix (fraction); higher = more synergy
[1] = system: BT-20 (Breast Carcinoma)
Outline: (§1)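 After 24 hours at 37°C and 5% CO2 in 1536-well plates, cells in DMEM/F12 or RPMI plus 10% FBS received two-drug dose matrices for 72 hours. Viability came from CellTiter-Glo 2.0 luminescence and was scaled as inhibition, anchored at 0 by vehicle wells and at 1 by blank wells. Combination Emax is taken as the second-highest inhibition in the matrix, and Bliss excess as the observed combination effect less EA + EB − EA·EB, with EA and EB the single-agent effects.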

[2] = system: DG-75 (Burkitt's Lymphoma)
Outline: as §1

[3] = system: EBC-1 (Squamous Cell Lung Carcinoma)
Outline: as §1

[4] = system: EMC-BAC-2 (Non-Small Cell Lung Carcinoma)
Outline: as §1

[5] = system: EW-13 (Ewing's Sarcoma)
Outline: as §1

[6] = system: EW-18 (Ewing's Sarcoma)
Outline: as §1

[7] = system: EW-3 (Ewing's Sarcoma)
Outline: as §1

[8] = system: GOTO (Neuroblastoma)
Outline: as §1

[9] = system: H-EMC-SS (Chondrosarcoma)
Outline: as §1

[10] = system: HuP-T3 (Pancreatic Carcinoma)
Outline: as §1

[11] = system: KYSE-50 (Esophageal Squamous Cell Carcinoma)
Outline: as §1

[12] = system: LC4-1 (B-Lymphoblastic Leukemia)
Outline: as §1

[13] = system: LOU-NH91 (Squamous Cell Lung Carcinoma)
Outline: as §1

[14] = system: NB7 (Neuroblastoma)
Outline: as §1

[15] = system: NCI-H513 (Other Solid Carcinomas)
Outline: as §1

[16] = system: OCUB-M (Breast Carcinoma)
Outline: as §1

[17] = system: OCUM-1 (Gastric Carcinoma)
Outline: as §1

[18] = system: OVISE (Ovarian Carcinoma)
Outline: as §1

[19] = system: PF-382 (T-Lymphoblastic Leukemia)
Outline: as §1

[20] = system: PFSK-1 (Other Solid Carcinomas)
Outline: as §1

CS(=O)(=O)CCNCc1ccc(-c2ccc3ncnc(Nc4ccc(OCc5cccc(F)c5)c(Cl)c4)c3c2)o1 [Lapatinib] + C[C@@H](Oc1cc(-c2cnn(C3CCNCC3)c2)cnc1N)c1c(Cl)ccc(F)c1Cl [Crizotinib] (first compound max 10 µM, 7x7, partner max 10 µM)
Bliss excess [1]: -0.0146
Bliss excess [2]: 0.0033
Bliss excess [3]: 0.0978
Bliss excess [4]: -0.021
Bliss excess [5]: 0.0066
Bliss excess [6]: -0.0533
Bliss excess [7]: -0.0505
Bliss excess [8]: -0.0499
Bliss excess [9]: -0.0192
Bliss excess [10]: -0.0563
Bliss excess [11]: -0.0352
Bliss excess [12]: -0.0501
Bliss excess [13]: 0.0284
Bliss excess [14]: -0.0172
Bliss excess [15]: -0.0342
Bliss excess [16]: -0.0465
Bliss excess [17]: -0.0252
Bliss excess [18]: 0
Bliss excess [19]: -0.0296
Bliss excess [20]: -0.0546

CC1(C)CCC(CN2CCN(c3ccc(C(=O)NS(=O)(=O)c4ccc(NCC5CCOCC5)c([N+](=O)[O-])c4)c(Oc4cnc5[nH]ccc5c4)c3)CC2)=C(c2ccc(Cl)cc2)C1 [Venetoclax] + C=CCn1c(=O)c2cnc(Nc3ccc(N4CCN(C)CC4)cc3)nc2n1-c1cccc(C(C)(C)O)n1 [AZD1775] (first compound max 1 µM, partner max 1 µM)
Bliss excess [1]: -0.0076
Bliss excess [2]: -0.0575
Bliss excess [3]: 0.0315
Bliss excess [4]: -0.0562
Bliss excess [5]: -0.0523
Bliss excess [6]: -0.014
Bliss excess [7]: 0.0735
Bliss excess [8]: 0.0047
Bliss excess [9]: -0.0532
Bliss excess [10]: -0.112
Bliss excess [11]: -0.0395
Bliss excess [12]: 0.0355
Bliss excess [13]: -0.0815
Bliss excess [14]: 0.0082
Bliss excess [15]: -0.0608
Bliss excess [16]: 0.0062
Bliss excess [17]: 0.0513
Bliss excess [18]: -0.0676
Bliss excess [19]: -0.0639
Bliss excess [20]: -0.0171

CN(CCO)CC[C@H](CSc1ccccc1)Nc1ccc(S(=O)(=O)NC(=O)c2ccc(N3CCC([C@@H](O)c4ccccc4-c4ccc(Cl)cc4)CC3)cc2)cc1S(=O)(=O)C(F)(F)F [AZD4320] + C1CN(CCC1(C(=O)N[C@@H](CCO)C2=CC=C(C=C2)Cl)N)C3=NC=NC4=C3C=CN4 [Capivasertib] (first compound max 1 µM, 7x7, partner max 3 µM)
Bliss excess [1]: 0.0427
Bliss excess [2]: -0.0093
Bliss excess [3]: -0.0181
Bliss excess [4]: -0.0761
Bliss excess [5]: -0.0633
Bliss excess [6]: -0.0124
Bliss excess [7]: -0.0687
Bliss excess [8]: -0.034
Bliss excess [9]: -0.0081
Bliss excess [10]: -0.0678
Bliss excess [11]: -0.0344
Bliss excess [12]: 0.0319
Bliss excess [13]: -0.067
Bliss excess [14]: -0.0403
Bliss excess [15]: -0.0501
Bliss excess [16]: -0.0174
Bliss excess [17]: -0.0087
Bliss excess [18]: -0.0459
Bliss excess [19]: 0.0458
Bliss excess [20]: 0.078

NC1(C(=O)N[C@@H](CCO)c2ccc(Cl)cc2)CCN(c2ncnc3[nH]ccc23)CC1 [Capivasertib] + COc1nnc2ccc(N3CCC(c4ccc(OCCN5CCN(C)C(=O)[C@H]5C)cc4)CC3)nn12 [AZD5153] (first compound max 10 µM, 7x7, partner max 1 µM)
Bliss excess [1]: 0.0023
Bliss excess [2]: -0.0133
Bliss excess [3]: 0.0374
Bliss excess [4]: 0.0396
Bliss excess [5]: 0.0153
Bliss excess [6]: 0.0119
Bliss excess [7]: 0.0429
Bliss excess [8]: 0.032
Bliss excess [9]: 0.0011
Bliss excess [10]: -0.0395
Bliss excess [11]: -0.0054
Bliss excess [12]: 0.002
Bliss excess [13]: -0.025
Bliss excess [14]: -0.0483
Bliss excess [15]: -0.0222
Bliss excess [16]: 0.0223
Bliss excess [17]: 0.0318
Bliss excess [18]: -0.0055
Bliss excess [19]: 0.0451
Bliss excess [20]: -0.0158

CC1(C)CCC(CN2CCN(c3ccc(C(=O)NS(=O)(=O)c4ccc(NCC5CCOCC5)c([N+](=O)[O-])c4)c(Oc4cnc5[nH]ccc5c4)c3)CC2)=C(c2ccc(Cl)cc2)C1 [Venetoclax] + CCN(CCO)CCCOc1ccc2c(Nc3cc(CC(=O)Nc4cccc(F)c4)[nH]n3)ncnc2c1 [AZD2811] (first compound max 1 µM, 7x7, partner max 1 µM)
Bliss excess [1]: -0.0005
Bliss excess [2]: -0.0104
Bliss excess [3]: 0.0178
Bliss excess [4]: -0.0038
Bliss excess [5]: -0.0499
Bliss excess [6]: -0.0131
Bliss excess [7]: 0.0634
Bliss excess [8]: 0.0162
Bliss excess [9]: -0.0468
Bliss excess [10]: -0.0309
Bliss excess [11]: 0.0025
Bliss excess [12]: 0.0039
Bliss excess [13]: -0.0477
Bliss excess [14]: 0.0098
Bliss excess [15]: -0.04
Bliss excess [16]: -0.049
Bliss excess [17]: 0.0236
Bliss excess [18]: 0.0134
Bliss excess [19]: 0.0279
Bliss excess [20]: 0.0663

NC1(C(=O)N[C@@H](CCO)c2ccc(Cl)cc2)CCN(c2ncnc3[nH]ccc23)CC1 [Capivasertib] + CC(C)n1c(=O)n(C)c2cnc3cc(F)c(-c4ccc(OCCCN5CCCCC5)nc4)cc3c21 [AZD1390] (first compound max 10 µM, 7x7, partner max 0.3 µM)
Bliss excess [1]: -0.0315
Bliss excess [2]: -0.0006
Bliss excess [3]: -0.0046
Bliss excess [4]: -0.0761
Bliss excess [5]: -0.024
Bliss excess [6]: -0.084
Bliss excess [7]: -0.0908
Bliss excess [8]: -0.0465
Bliss excess [9]: -0.0296
Bliss excess [10]: -0.0444
Bliss excess [11]: -0.0723
Bliss excess [12]: 0.0461
Bliss excess [13]: -0.0997
Bliss excess [14]: 0.0125
Bliss excess [15]: -0.0506
Bliss excess [16]: -0.0424
Bliss excess [17]: -0.039
Bliss excess [18]: -0.042
Bliss excess [19]: -0.0211
Bliss excess [20]: -0.0598
